In patent US20250325711A1, “COVALENT FLUORESCENT PROBES FOR CANNABINOID RECEPTOR 2” (Hoffmann-La Roche Inc., priority 2022, published 2025):
pKd: −log10 of the molar value. Where two headings read alike, the source gives them in different places.

Molecular target: hCB2R (Homo sapiens (Human), UniProt P34972)
Assay: TR-FRET hCB2R Binding Assay
[1] = SNAP-tagged human CB2R HEK293-TR cell membranes, TR-FRET (HTRF) detection, nonspecific binding with 1 μM SR144528, read-out: Kd hCB2R

Row | Structure (SMILES) | pKd [1] | pKd
1 | CCCCCCC(C)(C)c1cc(OC)c([C@H]2C=C(CNC(=O)CCCCCCNC(=O)c3ccc(=O)n(S(=O)(=O)c4cccc(C(=O)NCc5cn(CCOCCNc6ccc([N+](=O)[O-])c7nonc67)nn5)c4)c3)[C@H]3C[C@@H]2C3(C)C)c(OC)c1 [Example 3, N-(7-((((1S,4S,5S)-4-(2,6-dimethoxy-4-(2-methyloctan-2-yl)phenyl)-6,6-dimethylbicyclo[3.1.1]hept-2-en-2-yl)methyl)amino)-7-oxoheptyl)-1-((3-(((1-(2-(2-((7-nitrobenzo[c][1,2,5]oxadiazol-4-yl)amino)ethoxy)ethyl)-1H-1,2,3-triazol-4-yl)methyl)carbamoyl)phenyl)sulfonyl)-6-oxo-1,6-dihydropyridine-3-carboxamide] | 7.62 | 
2 | COc1cc(C(C)(C)CCCCCCN=[N+]=[N-])cc(OC)c1[C@H]1C=C(CNC(=O)CCCCCCNC(=O)c2ccc(S(=O)(=O)N(CC#N)C(=O)CCCCCNc3ccc([N+](=O)[O-])c4nonc34)cc2)[C@H]2C[C@@H]1C2(C)C [Example 10, N-(7-((((1S,4S,5S)-4-(4-(8-azido-2-methyloctan-2-yl)-2,6-dimethoxyphenyl)-6,6-dimethylbicyclo[3.1.1]hept-2-en-2-yl)methyl)amino)-7-oxoheptyl)-4-(N-(cyanomethyl)-N-(6-((7-nitrobenzo[c][1,2,5]oxadiazol-4-yl)amino)hexanoyl)sulfamoyl)benzamide] | 8.41 | 
3 | COc1cc(C(C)(C)CCCCCCN=[N+]=[N-])cc(OC)c1[C@H]1C=C(CNC(=O)CCCCCCCCNC(=O)c2ccc(=O)n(S(=O)(=O)c3cccc(C(=O)NCc4cn(CCOCCNc5ccc([N+](=O)[O-])c6nonc56)nn4)c3)c2)[C@H]2C[C@@H]1C2(C)C [Example 7, N-(9-((((1S,4S,5S)-4-(4-(8-azido-2-methyloctan-2-yl)-2,6-dimethoxyphenyl)-6,6-dimethylbicyclo[3.1.1]hept-2-en-2-yl)methyl)amino)-9-oxononyl)-1-((3-(((1-(2-(2-((7-nitrobenzo[c][1,2,5]oxadiazol-4-yl)amino)ethoxy)ethyl)-1H-1,2,3-triazol-4-yl)methyl)carbamoyl)phenyl)sulfonyl)-6-oxo-1,6-dihydropyridine-3-carboxamide] |  | 8.05
4 | C#CCCC(=O)N(CC#N)S(=O)(=O)c1ccc(C(=O)NCCCCCCC(=O)NCC2=C[C@H](c3c(OC)cc(C(C)(C)CCCCCCN=[N+]=[N-])cc3OC)[C@@H]3C[C@H]2C3(C)C)cc1 [Example 14, N-(7-((((1S,4S,5S)-4-(4-(8-azido-2-methyloctan-2-yl)-2,6-dimethoxyphenyl)-6,6-dimethylbicyclo[3.1.1]hept-2-en-2-yl)methyl)amino)-7-oxoheptyl)-4-(N-(cyanomethyl)-N-(pent-4-ynoyl)sulfamoyl)benzamide] | 8.82 | 
5 | COc1cc(C(C)(C)CCCCCCN=[N+]=[N-])cc(OC)c1[C@H]1C=C(CNC(=O)CCCCCCNC(=O)c2ccc(S(=O)(=O)N(CC#N)C(=O)CCc3cn(CCOCCNC(=O)c4ccc5c(c4)C4(OC5=O)c5ccc(N6CCC6)cc5[Si](C)(C)c5cc(N6CCC6)ccc54)nn3)cc2)[C@H]2C[C@@H]1C2(C)C [Example 13, 3,7-di(azetidin-1-yl)-N-(2-(2-(4-(3-((4-((7-((((1S,4S,5S)-4-(4-(8-azido-2-methyloctan-2-yl)-2,6-dimethoxyphenyl)-6,6-dimethylbicyclo[3.1.1]hept-2-en-2-yl)methyl)amino)-7-oxoheptyl)carbamoyl)-N-(cyanomethyl)phenyl)sulfonamido)-3-oxopropyl)-1H-1,2,3-triazol-1-yl)ethoxy)ethyl)-5,5-dimethyl-3′-oxo-3′H,5H-spiro[dibenzo[b,e]siline-10,1′-isobenzofuran]-6′-carboxamide] | 6.91 | 
6 | COc1cc(C(C)(C)CCCCCCN=[N+]=[N-])cc(OC)c1[C@H]1C=C(CNC(=O)CCCCCCNC(=O)c2ccc(=O)n(S(=O)(=O)c3cccc(C(=O)NCc4cn(CCOCCNc5ccc([N+](=O)[O-])c6nonc56)nn4)c3)c2)[C@H]2C[C@@H]1C2(C)C [Example 2, N-(7-((((1S,4S,5S)-4-(4-(8-azido-2-methyloctan-2-yl)-2,6-dimethoxyphenyl)-6,6-dimethylbicyclo[3.1.1]hept-2-en-2-yl)methyl)amino)-7-oxoheptyl)-1-((3-(((1-(2-(2-((7-nitrobenzo[c][1,2,5]oxadiazol-4-yl)amino)ethoxy)ethyl)-1H-1,2,3-triazol-4-yl)methyl)carbamoyl)phenyl)sulfonyl)-6-oxo-1,6-dihydropyridine-3-carboxamide] | 7.64 | 
7 | COc1cc(C(C)(C)CCCCCCN=[N+]=[N-])cc(OC)c1[C@H]1C=C(CNC(=O)CCCCCCNC(=O)c2ccc(S(=O)(=O)N(CC#N)C(=O)CCc3cn(CCOCCNc4ccc([N+](=O)[O-])c5nonc45)nn3)cc2)[C@H]2C[C@@H]1C2(C)C [Example 11, N-(7-((((1S,4S,5S)-4-(4-(8-azido-2-methyloctan-2-yl)-2,6-dimethoxyphenyl)-6,6-dimethylbicyclo[3.1.1]hept-2-en-2-yl)methyl)amino)-7-oxoheptyl)-4-(N-(cyanomethyl)-N-(3-(1-(2-(2-((7-nitrobenzo[c][1,2,5]oxadiazol-4-yl)amino)ethoxy)ethyl)-1H-1,2,3-triazol-4-yl)propanoyl)sulfamoyl)benzamide] | 6.82 | 
8 | COc1cc(C(C)(C)CCCCCCN=[N+]=[N-])cc(OC)c1[C@H]1C=C(CNC(=O)CCCCNC(=O)c2ccc(=O)n(S(=O)(=O)c3cccc(C(=O)NCCc4cn(CCOCCNc5ccc([N+](=O)[O-])c6nonc56)nn4)c3)c2)[C@H]2C[C@@H]1C2(C)C [Example 1, N-(5-((((1S,4S,5S)-4-(4-(8-azido-2-methyloctan-2-yl)-2,6-dimethoxyphenyl)-6,6-dimethylbicyclo[3.1.1]hept-2-en-2-yl)methyl)amino)-5-oxopentyl)-1-((3-((2-(1-(2-(2-((7-nitrobenzo[c][1,2,5]oxadiazol-4-yl)amino)ethoxy)ethyl)-1H-1,2,3-triazol-4-yl)ethyl)carbamoyl)phenyl)sulfonyl)-6-oxo-1,6-dihydropyridine-3-carboxamide] | 8.04 | 
9 | CCN(CC)c1ccc2cc(C=Cc3ccc(S(=O)(=O)[O-])c[n+]3CCCCCC(=O)NCCOCCn3cc(CCC(=O)N(CC#N)S(=O)(=O)c4ccc(C(=O)NCCCCCCC(=O)NCC5=C[C@H](c6c(OC)cc(C(C)(C)CCCCCCN=[N+]=[N-])cc6OC)[C@@H]6C[C@H]5C6(C)C)cc4)nn3)c(=O)oc2c1 [Example 12, 1-(6-((2-(2-(4-(3-((4-((7-((((1S,4S,5S)-4-(4-(8-azido-2-methyloctan-2-yl)-2,6-dimethoxyphenyl)-6,6-dimethylbicyclo[3.1.1]hept-2-en-2-yl)methyl)amino)-7-oxoheptyl)carbamoyl)-N-(cyanomethyl)phenyl)sulfonamido)-3-oxopropyl)-1H-1,2,3-triazol-1-yl)ethoxy)ethyl)amino)-6-oxohexyl)-6-(2-(7-(diethylamino)-2-oxo-2H-chromen-3-yl)vinyl)pyridin-1-ium-3-sulfonate] | 7.60 | 
